Reference: patent US20260335294A1, “TREATING CONGENITAL DISORDERS OF GLYCOSYLATION” (Mayo Foundation for Medical Education and Research, priority 2022, published 2026)

Legend:
[1] = test system: patient and control fibroblasts; assay: 13C6-fructose incubation of fibroblasts, polyol and hexose pools; assay type: cell-based, human; details: 0.15 mM 13C6-fructose, 5.5 mM glucose
Procedure: Next, the influence of dietary fructose on the urine polyol levels in PMM2-CDG was evaluated. Fructose has become one of the major sources of energy in the western diet and has been associated with numerous disorders such as diabetes, hypertension, obesity, etc. Peripheral fasting fructose levels range between 0.01-0.07 mM and can increase by 5-fold after consumption of a fructose rich meal. […] The possibility of fructose contributing to the polyols increase seen in PMM2-CDG was therefore tested. First, a fructose tolerance test in individuals with PMM2-CDG (P5) was performed. […] Then, to investigate the contribution of fructose in intracellular polyol accumulation, patient and control fibroblasts were incubated in the presence of 5.5 mM glucose and 0.15 mM (average blood fructose concentration upon fructose rich meal)^13C6-fructose and medium containing dialyzed FBS (FIG. 2A).

PMM2-CDG patient (P5) = assay: Fructose tolerance test, urine polyols; assay type: in vivo, human; details: P5, fasting, 1 g/kg oral fructose
Procedure: Fructose tolerance test was performed in P5 according to the standard clinical protocol at fasting state with 1 g/kg oral fructose, and the first voided urine was collected.

Row | Structure (SMILES) | Fractional Contribution (FC) in total hexose pool ([1]; PMM2-CDG and controls) [%] | hexose pool abundance ([1]; dialyzed FBS) | polyol pool abundance ([1]; dialyzed FBS) | fold increase of urine mannitol after fructose tolerance test (PMM2-CDG patient (P5)) [times] | fold increase of urine sorbitol after fructose tolerance test (PMM2-CDG patient (P5))
1 | OCC1(O)OC[C@@H](O)[C@@H](O)[C@@H]1O (some centres unmarked) [^13C6-fructose] | 4 | increase | increase | – | –
2 | O=C(CO)[C@@H](O)[C@H](O)[C@H](O)CO [fructose] | – | – | – | 3 | approximately 7 times
